In publication PMC8048873 (The Plant Journal, 2021) one finds Kd data, which are given here for one molecule.

The assay has as its target T1, CERK1 ectodomain (CERK1-ECD; LYK1) (Arabidopsis thaliana, UniProt A8R7E6).
T1 sequence (A8R7E6 24-232): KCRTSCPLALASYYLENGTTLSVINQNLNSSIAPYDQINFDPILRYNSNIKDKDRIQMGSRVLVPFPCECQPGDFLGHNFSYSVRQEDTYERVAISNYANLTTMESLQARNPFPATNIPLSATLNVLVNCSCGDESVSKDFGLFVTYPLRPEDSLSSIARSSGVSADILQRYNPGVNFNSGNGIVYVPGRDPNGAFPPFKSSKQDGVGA
Put plainly: isothermal titration calorimetry. It counts as binding. Conditions: 20 mM MES pH 6.5, 150 mM NaCl, 25°C; 50 µM protein in cell, ligand 500 µM or 1 mM; n = 2. Background: Isothermal titration calorimetry measures the heat released or taken up as one component is titrated into another.

A word on the Kd: it is the free concentration of one partner at which half of the binding sites on the other are occupied at equilibrium, for simple one-to-one binding. Read a high Kd as weaker binding. Consider `CC(=O)N[C@H]1[C@H](O[C@H]2[C@H](O)[C@@H](NC(C)=O)[C@H](O[C@H]3[C@H](O)[C@@H](NC(C)=O)C(O)O[C@@H]3CO)O[C@@H]2CO)O[C@H](CO)[C@@H](O[C@@H]2O[C@H](CO)[C@@H](O[C@@H]3O[C@H](CO)[C@@H](O[C@@H]4O[C@H](CO)[C@@H](O)[C@H](O)[C@H]4NC(C)=O)[C@H](O)[C@H]3NC(C)=O)[C@H](O)[C@H]2NC(C)=O)[C@@H]1O` (stereo partly drawn) [1,4‐β‐D‐(GlcNAc)6, chitohexaose], for which the Kd was determined as 37.5 ± 10 µM.
